Data published in patent publication US9227968B2, “Method of treatment or prophylaxis of inflammatory pain” (Novartis AG, priority 2006, dated 2016).
“Also recorded” adds a separate entry of the source.

Legend:
[1] = system: monoarthritic rats; experiment: Paw pressure test (vocalization threshold) in monoarthritic rats (intraarticular FCA); type: in vivo, rat; settings: for antihyperalgesic effect in model of monoarthritis (overall): i.p. 0.1, 1 and 10 mg/kg
Protocol: Experimentation was done blindly using the block method with randomization. Unilateral monoarthritits was induced by an intraarticular injection of FCA (0.05 ml) into the tibio tarsial cavity of the right hindpaw of the rat under volatile anaesthetic (5% isofluorane). Fourteen days later, drugs were intraperitoneally given as a single administration. Pain reaction thresholds (vocalization or struggle) were measured using the paw pressure test before induction of monoarthritis, just before drug injections and 15 min, 30 min, 45 min, 1 h, 1 h 30, 2 h and 3 h after drug injections. Pressure was gradually applied to the injected hindpaw of the rat (tibio tarsial articulation) and pain reaction thresholds were determined as the pressure (g) required to elicit struggle or vocalization.
Results were expressed as pressure (g) which induces pain reaction (mean+/−SEM). The cut-off value corresponds to the maximum pressure that the apparatus allows (750 g). Data were analyzed by a two-way analysis of variance (ANOVA) to compare time-course scores. These analyses were followed by a Tukey test when the F-value was significant. The significance level was p<0.05.

[2] = Solubility of test articles in the dosing vehicle (Example 3); settings: at 10 mg/kg (2 mL/kg, NaCl 0.9%/DMSO 50/50)
[3] = system: ipsilateral (inflamed) hindpaw of the FCA-rat model of inflammatory pain; experiment: Paw Pressure Test, FCA-rat model of inflammatory pain (Example 1), ipsilateral hindpaw; type: in vivo; settings: single i.p. bolus doses ~7-70 mg/kg (estimated doses)
Protocol: Single bolus doses of PD-123,319 were administered by the i.p. route to rats with FCA-induced unilateral hindpaw inflammation, a rat model of inflammatory pain. Anti-hyperalgesic (pain-relieving) efficacy was assessed using the Paw Pressure Test, a test which involves the application of noxious pressure to the inflamed hindpaw.
Following i.pl. […] The ability of single bolus doses of PD-123,319 (˜7-70 mg/kg) or vehicle to alleviate mechanical hyperalgesia in the ipsilateral (inflamed) hindpaw was assessed using the Paw Pressure Test (PPT).

[4] = system: ipsilateral hindpaw volume of FCA-rats; experiment: Paw volume measurement in FCA-rats (water displacement); type: in vivo, rat; settings: 3 h post-dosing, single bolus doses tested
Protocol: Paw volume was assessed using displacement of water by the hindpaw to indicate the paw volume. These measurements were undertaken for both the ipsilateral and contralateral hindpaws prior to and 5 days after i.pl. FCA administration and prior to and 3 h post-dosing.

[5] = system: FCA-rats; experiment: Behavioural observations in FCA-rats; type: in vivo, rat; settings: single bolus: EMA500 1-100 mg/kg i.p., EMA600 1-30 mg/kg i.p., morphine 0.5 mg/kg
From the text: The animals were monitored for visible and audible signs of distress throughout the testing period. The visible signs of distress included behavioural changes such as complete immobility, movement with abnormal gait, agitation, aggression, wet dog shakes, excessive grooming, restlessness with constant movement, repeated sudden movements or staring.

[6] = system: ipsilateral (inflamed) hindpaw of FCA-rats; experiment: Paw Pressure Test (PPT) in FCA-rats (Example 2), anti-hyperalgesia in ipsilateral hindpaw
[7] = system: contralateral (non-inflamed) hindpaw of FCA-rats; experiment: Paw Pressure Test (PPT) in FCA-rats (Example 2), antinociception in contralateral hindpaw; settings: 0.5 mg/kg s.c.; did not reach statistical significance (p>0.05)

## COc1ccc2c(c1OCc1ccccc1)CC(C(=O)O)N(C(=O)C(c1ccccc1)c1ccccc1)C2 (single isomer, unassigned; (+)) [EMA400, (+)-2-(Diphenylacetyl)-1,2,3,4 tetrahydro-6-methoxy-5-(phenylmethoxy)-3-isoquinoline carboxylic acid]
[1]; 1 mg/kg i.p., 15 minutes after the injection
  antihyperalgesic effect: +20%
[1]; 10 mg/kg i.p., 15 minutes after the injection
  antihyperalgesic effect: +40%
[1]; 10 mg/kg i.p., 30 minutes after the injection
  antihyperalgesic effect: significant antihyperalgesic effect
[1]
  antihyperalgesic effect in model of monoarthritis (overall): induce antihyperalgesic effects
[2]
  solubility issues: Solubility issues were observed

## Cc1cc(Cn2cnc3c2CC(C(=O)O)N(C(=O)C(c2ccccc2)c2ccccc2)C3)ccc1N(C)C (stereo not drawn) [PD-123,319, 1-(4-Dimethylamino-3-methylphenyl)methyl-5-diphenylacetyl-4,5,6,7-tetrahydro-1H-imidazo[4,5-c]-pyridine-6-carboxylic acid]
[3]
  relief of mechanical hyperalgesia in the ipsilateral (inflamed) hindpaw: dose-dependent relief of mechanical hyperalgesia

## COc1ccc(Cn2cnc3c2CC(C(=O)O)N(C(=O)C(c2ccccc2)c2ccccc2)C3)cc1C (stereo not drawn) [EMA300, 1-(3-methyl-4-methoxyphenyl)-methyl-5-diphenylacetyl-4,5,6,7-tetrahydro-1H-imidazo[4,5-c]pyridine-6-carboxylic acid]
[1]; 0.1 mg/kg i.p., 15 and 30 minutes after drug injection
  antihyperalgesic effect: +6%
[1]; 1 mg/kg i.p., 15 and 30 minutes after drug injection
  antihyperalgesic effect: +22%
[1]; 10 mg/kg i.p., 15 and 30 minutes after drug injection
  antihyperalgesic effect: +56%
[1]
  antihyperalgesic effect in model of monoarthritis (overall): dose-dependent antihyperalgesic effect; also recorded: induce antihyperalgesic effects

## CN1CC[C@]23c4c5ccc(O)c4O[C@H]2[C@@H](O)C=C[C@H]3[C@H]1C5 [morphine]
[4]
  effect on ipsilateral hindpaw volume: did not alter ipsilateral hindpaw volumes; also recorded: unaffected
[5]
  adverse behavioural effects: did not produce adverse behavioural effects
[1]; morphine 5 mg/kg i.p., compared to pre-induction values
  antinociceptive effect (vocalization threshold): significant increase in the vocalization threshold
[6]; 0.5 mg/kg s.c. single bolus
  duration of action (anti-hyperalgesic response): 2 to 3 h
[6]; 0.5 mg/kg s.c. single bolus, post-dosing
  time of peak anti-hyperalgesic response: 0.5 h
[6]; 0.5 mg/kg s.c., 0.5 h post-dosing
  reversal of FCA-induced mechanical hyperalgesia: fully reversed FCA-induced mechanical hyperalgesia
[6]; 0.5 mg/kg s.c., 0.5 h post-dosing, pre-dosing 63.7 (±2.5) g
  mean (±SEM) PPT at the time of peak effect, ipsilateral hindpaw: 115.0 (±10.6) g
[7]
  antinociceptive effect in the contralateral hindpaw: small antinociceptive effect
